“And” between values parts separate entries of the source, which are not always exact repeats. Identical values can stand only once.
Columns and labels:
Type in all cases: cell-based
human P2X4 [1] = molecular target: T1, human P2X4 (Homo sapiens, UniProt Q99571); test: Human P2X4 HEK Cell FLIPR Assay; settings: HEK293, HEK293 cells, agonist Bz-ATP at EC80; percentage of maximal inhibition; read-out: Human P2X4 HEK Cells (FLIPR Assay) avg Efficacy [%]
T1 sequence (Q99571 1-388): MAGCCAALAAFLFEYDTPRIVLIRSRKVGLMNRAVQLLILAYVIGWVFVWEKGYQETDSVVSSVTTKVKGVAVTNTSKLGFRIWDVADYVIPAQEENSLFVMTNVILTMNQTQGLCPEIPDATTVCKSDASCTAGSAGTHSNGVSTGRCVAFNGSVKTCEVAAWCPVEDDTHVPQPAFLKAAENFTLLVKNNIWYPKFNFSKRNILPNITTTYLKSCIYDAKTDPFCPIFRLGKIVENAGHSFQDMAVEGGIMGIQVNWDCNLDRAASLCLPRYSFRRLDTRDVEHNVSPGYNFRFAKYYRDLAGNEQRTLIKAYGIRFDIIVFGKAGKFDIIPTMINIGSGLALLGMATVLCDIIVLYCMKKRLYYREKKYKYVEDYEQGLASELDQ
Outline: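 Calcium flux read by FLIPR for 120 sec after Bz-ATP challenge at EC80 (established each assay day), following 30 min room-temperature compound preincubation in dye-loaded stable human P2X4 HEK293 cells. Peak RFU over basal normalized to agonist control; IC50, maximal inhibition and Hill coefficient from triplicate means.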

endogenous P2X4 channels = molecular target: T2, endogenous P2X4 channels (Homo sapiens, UniProt Q99571); test: Human Monocyte P2X4 Assay (FLIPR); settings: primary human monocytes, 3 μM BzATP, one value per donor
T2 construct: measure calcium influx through endogenous P2X4 channels into primary human monocytes
T2 sequence (Q99571 1-388): T1 sequence (Q99571 1-388)
Procedure: The principle of the assay is to measure calcium influx through endogenous P2X4 channels into primary human monocytes, following activation by 2′,3′-O-(4-benzoyl-benzoyl)-ATP (Bz-ATP). Intracellular calcium concentration changes were measured with a Flipr® (Molecular Devices) device using a calcium sensitive dye (Fluo-8). In primary monocytes P2X4 is located at the lysosome membrane, therefore exocytosis has to be triggered to expose P2X4 at the cellular membrane.
Human peripheral blood mononuclear cells (PBMCs) from anticoagulated blood (blood cells, BC) were isolated via density gradient centrifugation. Whole blood was diluted 1:3 with PBS. Samples of 30 mL were layered carefully on top of 15 mL Biocoll (BIOCHROM) in 50 mL centrifuge tubes (Falcon). Tubes were centrifuged at 914×g for 25 min at RT without brake. The PBMC layer was removed with a 10 mL pipette and transferred into tubes with ice-cold PBS in a total volume of 50 mL. Cells were washed twice by pelleting at 300×g at 4° C., for 10 min and for 5 min respectively. PBMCs were re-suspended in 10 mL medium (X-vivo, Biozym Scientific) and counted in a Neubauer chamber.
Monocytes were isolated by negative selection using the Monocyte isolation kit II from Miltenyi (#130-091-153) according to the instructions. Isolation should be done fast and cells and solutions should be kept on ice at any time. PBMCs in batches of 10 exp8 cells were pelleted (300×g, 10 min) and re-suspended with 300 μL MACS buffer in a 50 mL Falcon tube. FcR Blocking reagent (100 μl) and Biotin-Ab (100 μl) were added, mixed and incubated on ice for 10 min. MACS buffer (300 μL) and anti-Biotin Micro-beads (100 μL) were added, mixed and incubated on ice for 15 min. Cells were washed by pelleting (300×g for 10 min) and re-suspended in 500 μL MACS buffer. For each batch one separation column was placed in the MACS separator and rinsed with 3 mL MACS buffer. The cell suspension was added to the column, followed by 3×3 mL MACS buffer for washing, and the eluent containing the monocytes was collected. Cells were pelleted (300×g for 10 min), re-suspended in X-vivo medium and counted. Monocytes were seeded into fibronectin-coated micro-plates (384-well, black, flat transparent bottom; Corning #3848) at a density of 30,000 cells/well in 50 μL, and cultivated over night (37° C., 5% CO2).
Test substances were dissolved in 100% DMSO at a stock concentration of 10 mM and stored at −20° C. in aliquots. Serial dilutions (2×) were prepared in DMSO and diluted 500× with assay buffer to generate the antagonist plate. In the Flipr measurement, 10 μL per well were transferred (4× dilution) and a final top concentrations of 5 μM and 0.05% DMSO were obtained in the assay. Agonist BzATP was stored at 10 mM in aliquots and diluted to an intermediate concentration of 15 μM to generate the agonist plate. In the Flipr measurement, 10 μL per well were transferred (5× dilution) so that a final assay concentration of 3 μM was obtained.
For the experiment, the medium of the cell plate was discarded manually and 70 μL/well loading buffer was added and incubated for 1 h (37° C., 5% CO2). Loading buffer contained HBSS (w/o calcium/magnesium), 10 mM Hepes pH 7.4, 5 μM Fluo-8 (AM) (Tebu-bio) and 50 mM methylamine (Sigma) to trigger exocytosis. Loading buffer was discarded manually and 30 μL/well low-calcium assay buffer (5 mM KCl, 145 mM NaCl, 0.5 mM CaCl2, 13 mM glucose, 10 mM Hepes pH 7.4) was added. The antagonist plate was transferred (10 μL/well) and after 15 min at RT the agonist plate (10 μL/well) was transferred.
Agonist addition was recorded for 240 seconds after a 10 second baseline. For analysis, a baseline correction was applied, and the maximum of the curve was extracted. Data were normalized towards 0% inhibition (signal at 3 μM BzATP) and 100% inhibition (absence of BzATP stimulation) and fitted with a four-parameter sigmoidal inhibition curve using Prism GraphPad to obtain IC50 values.

human P2X4 [2] = molecular target: T1, human P2X4; test: FLIPR assay, human P2X4 1321N1 Astrocytoma cells; settings: agonist Mg-ATP 0.5 μM (EC80)
Procedure: (§1) 1321N1 Astrocytoma cells stably expressing human P2X4 or rat P2X4 or mouse P2X4 were plated in Collagen I TC-treated microplate at a seeding density of 10000 cells/well and incubated overnight. P2X4 function was assessed by measuring intracellular calcium changes using the calcium-chelating dye Fluo8-AM (Molecular Devices) on a fluorescent imaging plate reader (FLEX/FLIPR station; Molecular Devices). On the day of the assay, the medium was removed and the cells were incubated for 30 min at 37 °C and 5% CO2 in 30 μL of dye buffer (Hank's balanced salt solution, 10 mM HEPES, 1.8 mM CaCl2, 1 mM MgCl2, 2 mM probenecid, 5 mM D-glucose monohydrate, 5 μM Fluo8-AM, pH=7.4). Compounds diluted in probenecid buffer (Hank's balanced salt solution, 10 mM HEPES, 1.8 mM CaCl2, 1 mM MgCl2, 2 mM probenecid, 5 mM D-glucose monohydrate, pH=7.4) were added in a volume of 10 μL and allowed to incubate for 30 min at room temperature. The final assay DMSO concentration was 0.25%. The agonist, Mg-ATP (Sigma), was added in a volume of 10 μL at a concentration representing the EC80 value. EC80 was determined to be 0.5 μM for human and mouse P2X4 and 5 μM for rat P2X4. The fluorescence was measured for an interval of 120 sec at 2 sec intervals. The excitation and emission wavelengths used to monitor fluorescence were 470-495 nm and 515-575 nm, respectively. The data was analyzed based on the increase in peak relative fluorescence units (RFU) compared to the basal fluorescence and the data was normalized to the agonist control. The compounds were tested in triplicates per plate and mean values were plotted in Excel XLFit to determine IC50 values, percentage of maximal inhibition and the Hill coefficients.

mouse P2X4 = molecular target: T3, mouse P2X4 (Mus musculus, UniProt Q9JJX6); test: FLIPR assay, mouse P2X4 1321N1 Astrocytoma cells; settings: agonist Mg-ATP 0.5 μM (EC80)
T3 sequence (Q9JJX6 1-388): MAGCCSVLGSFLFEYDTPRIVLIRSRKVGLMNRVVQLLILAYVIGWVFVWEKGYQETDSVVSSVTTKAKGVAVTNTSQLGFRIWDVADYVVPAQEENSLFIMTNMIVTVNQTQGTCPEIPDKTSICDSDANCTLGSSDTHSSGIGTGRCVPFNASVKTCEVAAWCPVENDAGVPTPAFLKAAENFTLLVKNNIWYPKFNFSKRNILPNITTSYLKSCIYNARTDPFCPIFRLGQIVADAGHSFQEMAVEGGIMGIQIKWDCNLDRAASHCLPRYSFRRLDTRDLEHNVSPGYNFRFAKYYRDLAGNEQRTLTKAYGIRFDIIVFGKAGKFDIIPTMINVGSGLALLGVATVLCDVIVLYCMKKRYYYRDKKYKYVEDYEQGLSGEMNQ
Procedure: as §1

rat P2X4 = molecular target: T4, rat P2X4 (Rattus norvegicus, UniProt P51577); test: FLIPR assay, rat P2X4 1321N1 Astrocytoma cells; settings: agonist Mg-ATP 5 μM (EC80)
T4 sequence (P51577 1-388): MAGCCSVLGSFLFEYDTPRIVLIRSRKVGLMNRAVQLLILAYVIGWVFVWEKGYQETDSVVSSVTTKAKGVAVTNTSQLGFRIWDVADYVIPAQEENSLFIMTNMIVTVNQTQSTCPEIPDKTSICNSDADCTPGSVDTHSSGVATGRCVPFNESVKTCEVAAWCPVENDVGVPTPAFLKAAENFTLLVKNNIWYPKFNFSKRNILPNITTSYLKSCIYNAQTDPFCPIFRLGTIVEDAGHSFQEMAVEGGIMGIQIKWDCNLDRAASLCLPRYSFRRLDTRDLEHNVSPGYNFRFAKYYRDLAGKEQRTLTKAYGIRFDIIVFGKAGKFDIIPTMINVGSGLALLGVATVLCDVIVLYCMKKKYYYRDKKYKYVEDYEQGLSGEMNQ
Procedure: as §1

Question: How did the Emax (human P2X4 [1]) turn out when NS(=O)(=O)c1cc(NC(=O)Cc2ccccc2Cl)ccc1-n1cnc(Cl)n1 [Example 24, 2-(2-Chlorophenyl)-N-[4-(3-chloro-1H-1,2,4-triazol-1-yl)-3-sulfamoylphenyl]-acetamide] was run?
Answer: The Emax was 92%.

Question: What about the “Human P2X4 Monocytes (FLIPR Assay) Efficacy for different donors” value (shortened to “Human P2X4 Monocytes … for different donors”) (endogenous P2X4 channels) of the same molecule?
Answer: The value was 77% and 88%.

Question: How did the Emax (human P2X4 [1]) turn out when NS(=O)(=O)c1cc(NC(=O)Cc2ccccc2Cl)cnc1-n1cc(C(F)(F)F)cn1 [Example 380, 2-(2-Chlorophenyl)-N-{5-sulfamoyl-6-[4-(trifluoromethyl)-1H-pyrazol-1-yl]pyridin-3-yl}acetamide] was run?
Answer: Its Emax is 69%.

Question: And the “Human P2X4 Monocytes … for different donors” value (endogenous P2X4 channels)?
Answer: The value was 32% and 107%.

Question: Which results are given for NS(=O)(=O)c1cc(NC(=O)Cc2ccccc2Cl)ccc1-n1cc(F)cn1 [Example 26, 2-(2-Chlorophenyl)-N-[4-(4-fluoro-1H-pyrazol-1-yl)-3-sulfamoylphenyl]acetamide]?
Answer: Emax (human P2X4 [1]): 85%; Human P2X4 Monocytes (FLIPR Assay) Efficacy for different donors (endogenous P2X4 channels): 88%

Question: Which Emax (human P2X4 [1]) does the source give for COc1ccc(CC(=O)Nc2ccc(-n3cc(Cl)cn3)c(S(N)(=O)=O)c2)cc1 [Example 170, N-[4-(4-Chloro-1H-pyrazol-1-yl)-3-sulfamoylphenyl]-2-(4-methoxyphenyl)acetamide] here?
Answer: The Emax was 70%.

Question: What about the “Human P2X4 Monocytes … for different donors” value (endogenous P2X4 channels) of the same molecule?
Answer: The value was 69% and 54%.

Question: What does the source list for NS(=O)(=O)c1cc(NC(=O)Cc2ccccc2Cl)cnc1-n1cc(Cl)cn1 [Example 387, 2-(2-Chlorophenyl)-N-[6-(4-chloro-1H-pyrazol-1-yl)-5-sulfamoylpyridin-3-yl]acetamide]?
Answer: Emax (human P2X4 [1]): 73%; Human P2X4 Monocytes (FLIPR Assay) Efficacy for different donors (endogenous P2X4 channels): 51%

Question: With NS(=O)(=O)c1cc(NC(=O)Cc2ccccc2F)cnc1-c1cnn(C(F)F)c1 [Example 321, N-{6-[1-(Difluoromethyl)-1H-pyrazol-4-yl]-5-sulfamoylpyridin-3-yl}-2-(2-fluorophenyl)acetamide] as the molecule, how does the Emax (human P2X4 [1]) read?
Answer: The Emax was 84%.

Question: What about the “Human P2X4 Monocytes … for different donors” value (endogenous P2X4 channels) of the same molecule?
Answer: Its value is 34% and 46% and 95%.

Question: And the Emax (endogenous P2X4 channels; read-out: Human P2X4 Monocytes (FLIPR Assay) Efficacy for different donors)?
Answer: Its Emax is 49%.

Question: And the IC50 (endogenous P2X4 channels; read-out: Human P2X4 Monocytes (FLIPR Assay) IC50 for different donors)?
Answer: The IC50 was 157 nM.

Question: Which results are given for NS(=O)(=O)c1cc(NC(=O)Cc2ccccc2Cl)ccc1-n1cc(C(F)(F)F)cn1 [Example 19, 2-(2-Chlorophenyl)-N-{3-sulfamoyl-4-[4-(trifluoromethyl)-1H-pyrazol-1-yl]phenyl}acetamide]?
Answer: Emax (human P2X4 [1]): 71%; Human P2X4 1321N1 Astrocytoma Cells (FLIPR Assay) avg Efficacy [%] (human P2X4 [2]): 60%; Mouse P2X4 1321N1 Astrocytoma Cells (FLIPR Assay) avg Efficacy [%] (mouse P2X4): 69%; Rat P2X4 1321N1 Astrocytoma Cells (FLIPR Assay) avg Efficacy [%] (rat P2X4): 57%

Question: Which results are given for NS(=O)(=O)c1cc(NC(=O)Cc2ccccc2Cl)ccc1-n1cc(Br)cn1 [Example 28, N-[4-(4-Bromo-1H-pyrazol-1-yl)-3-sulfamoylphenyl]-2-(2-chlorophenyl)acetamide]?
Answer: Emax (human P2X4 [1]): 90%; Human P2X4 Monocytes (FLIPR Assay) Efficacy for different donors (endogenous P2X4 channels): 64% and 90%

— US11524938B2, “Aromatic sulfonamide derivatives” (Bayer Pharma Aktiengesellschaft, priority 2016, dated 2022)
